Test results taken from ChEMBL document CHEMBL1129522, “Inhibitors of acyl-CoA:cholesterol O-acyltransferase. 17. Structure-activity relationships of several series of compounds derived from N-chlorosulfonyl isocyanate” (J Med Chem, 1996).
pIC50: −log10 of the molar value. Several values for one entry are separate records, joined by “and”; a condition that tells them apart may be missing. Equal entries are not always repeated.

Assays:
[1] = target: T1, Sterol O-acyltransferase 1 (Rattus norvegicus, UniProt O70536); test: In vitro inhibitory activity against acyl coenzyme A:cholesterol acyltransferase 1 in microsomes of rat liver
T1 sequence (O70536 whole entry): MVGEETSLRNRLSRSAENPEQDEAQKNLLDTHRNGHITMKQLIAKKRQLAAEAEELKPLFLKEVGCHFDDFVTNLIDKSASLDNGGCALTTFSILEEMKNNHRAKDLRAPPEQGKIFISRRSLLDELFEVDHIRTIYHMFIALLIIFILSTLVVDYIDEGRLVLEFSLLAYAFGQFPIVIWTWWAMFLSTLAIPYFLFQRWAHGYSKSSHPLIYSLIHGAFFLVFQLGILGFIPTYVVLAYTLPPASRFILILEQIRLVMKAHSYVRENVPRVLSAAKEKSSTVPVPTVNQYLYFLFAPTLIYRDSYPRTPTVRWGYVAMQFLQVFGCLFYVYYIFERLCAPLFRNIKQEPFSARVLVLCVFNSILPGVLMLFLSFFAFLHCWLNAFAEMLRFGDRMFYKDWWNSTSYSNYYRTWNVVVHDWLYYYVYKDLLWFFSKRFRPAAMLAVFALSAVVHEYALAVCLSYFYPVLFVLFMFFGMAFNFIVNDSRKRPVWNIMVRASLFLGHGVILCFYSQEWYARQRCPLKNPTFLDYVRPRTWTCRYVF

Rattus norvegicus = test: Acute in vivo activity measured by total plasma cholesterol concentration levels (TC) at 30 mg/kg dose; format: functional
[2] = target: T2, Sterol O-acyltransferase 1 (Rattus norvegicus) (UniProt O70536); test: Acute in vivo activity was measured by the total plasma cholesterol concentration levels(TC) at dose 3 mg/kg; format: functional, organism-based; set-up: dose 3 mg/kg
T2 sequence (whole entry): T1 sequence (O70536 whole entry)

SMILES	pIC50 [1]	Delta TC (Rattus norvegicus) [%]	Delta TC [2]
CCCCCCCCCCOS(=O)(=O)NC(=O)Nc1c(C(C)C)cccc1C(C)C	< 5.00	–	–
CC(C)NS(=O)(=O)NC(=O)Nc1c(C(C)C)cccc1C(C)C	4.74	–	–
COC(=O)NS(=O)(=O)Nc1c(C(C)C)cccc1C(C)C	< 4.00	–	–
CC(C)c1ccccc1OC(=O)NS(=O)(=O)Oc1c(C(C)C)cccc1C(C)C	< 4.30	-37	–
CCCCCCNS(=O)(=O)NC(=O)Nc1c(C(C)C)cccc1C(C)C	5.09	–	–
CC(C)c1cccc(C(C)C)c1OC(=O)NS(=O)(=O)Oc1ccc(F)cc1F	< 4.30	-11	–
CC(C)c1cccc(C(C)C)c1OS(=O)(=O)NC(=O)OC1CCCCC1	4.42	-38	–
CCCCCN(CCCCC)S(=O)(=O)NC(=O)Oc1c(C(C)(C)C)cc(C)cc1C(C)(C)C	5.66	–	–
CC(C)c1cccc(C(C)C)c1OS(=O)(=O)NC(=O)Oc1c(F)c(F)c(F)c(F)c1F	4.18	-5	–
CC(C)c1cccc(C(C)C)c1OS(=O)(=O)NC(=O)Oc1c(C(C)(C)C)cc(CN(C)C)cc1C(C)(C)C	4.66	2	–
CCOC(=O)[N-]S(=O)(=O)Oc1c(C(C)C)cccc1C(C)C.[Na+]	< 4.30	17	–
CC(C)c1cccc(C(C)C)c1OS(=O)(=O)NC(=O)OC1[C@H](C(C)C)CCC[C@H]1C(C)C (relative stereo)	5.24	-35	–
CCCCCCCCCCCCOC(=O)NS(=O)(=O)Nc1c(C(C)C)cccc1C(C)C	4.48	–	–
CC(C)c1cccc(C(C)C)c1OS(=O)(=O)NC(=O)Oc1ccc(F)cc1	< 4.30	-21	–
CCC(C)N(C(=O)NS(=O)(=O)Oc1c(C(C)C)cccc1C(C)C)C(C)CC (configuration not stated)	4.92	-20	–
C=CCN(CC=C)S(=O)(=O)NC(=O)Nc1c(C(C)C)cccc1C(C)C	5.57	–	2%
Cc1cc(C)c(C)c(OC(=O)NS(=O)(=O)Oc2c(C(C)C)cccc2C(C)C)c1C	< 4.30	-17	–
CCCCCCCCCCCCOS(=O)(=O)NC(=O)Sc1c(C(C)C)cccc1C(C)C	4.32	-9	–
CN(C(=O)Oc1c(C(C)(C)C)cccc1C(C)(C)C)S(=O)(=O)NC(c1ccccc1)c1ccccc1	5.34	–	–
COC(=O)NS(=O)(=O)Oc1c(C(C)C)cccc1C(C)C	< 4.00	–	–
CC(C)c1cccc(C(C)C)c1NS(=O)(=O)NC(=O)NC(c1ccccc1)c1ccccc1	4.52	–	-5%
CC(C)c1cccc(C(C)C)c1OC(=O)NS(=O)(=O)N1CCc2ccccc21	4.37	–	-31%
CC(C)c1cccc(C(C)C)c1NS(=O)(=O)NC(=O)Oc1c(-c2ccccc2)cccc1-c1ccccc1	< 4.60	–	–
CCCCN(C)S(=O)(=O)NC(=O)Nc1c(C(C)C)cccc1C(C)C	5.64	–	-37%
CC(C)c1cccc(C(C)C)c1OS(=O)(=O)NC(=O)Oc1cccnc1	< 4.30	-2	–
CC(C)c1cccc(C(C)C)c1NC(=O)NS(=O)(=O)N1CCCCC1	4.77	–	–

SMILES	pIC50 [1]	Delta TC (Rattus norvegicus) [%]	Delta TC [2]
CC(C)c1cccc(C(C)C)c1OC(=O)NS(=O)(=O)N(Cc1ccccc1)Cc1ccccc1	4.70	–	-17%
CC(C)c1cccc(C(C)C)c1OS(=O)(=O)NC(=O)OC12CC3CC(CC(C3)C1)C2	4.89	-10	–
Cc1cccc(C)c1OC(=O)NS(=O)(=O)Oc1c(C(C)C)cccc1C(C)C	< 4.30	-37	–
CCCCCCNS(=O)(=O)NC(=O)Oc1c(C(C)(C)C)cc(C)cc1C(C)(C)C	4.71	–	-10%
CC(C)c1cccc(C(C)C)c1OS(=O)(=O)NC(=O)OC1C2CC3CC(C2)CC1C3 (configuration not stated)	4.64	-36	–
CCCCN(CCCC)S(=O)(=O)NC(=O)Oc1c(C(C)C)cccc1C(C)C [listing 1 of 2 here]	5.72	–	–
CCCCCCCCN(C)S(=O)(=O)NC(=O)Oc1c(C(C)(C)C)cc(C)cc1C(C)(C)C	4.74	–	1%
CC(C)c1cccc(C(C)C)c1OS(=O)(=O)NC(=O)Oc1c(F)cccc1F	4.19	-27	–
COc1cccc(OC)c1OC(=O)[N-]S(=O)(=O)Oc1c(C(C)C)cccc1C(C)C.[Na+]	4.32	-49	–
CC(C)c1cccc(C(C)C)c1OS(=O)(=O)NC(=O)Oc1ccc(Cl)cc1	4.01	-8	–
CC(C)(C)c1cccc(C(C)(C)C)c1OC(=O)NS(=O)(=O)Oc1c(C(C)(C)C)cccc1C(C)(C)C	4.52	-18	–
CC(C)c1cccc(C(C)C)c1OC(=O)[N-]S(=O)(=O)Oc1c(C(C)C)cccc1C(C)C.[Na+]	–	-74	–
COc1cc(OC)c(OC(=O)NS(=O)(=O)Oc2c(C(C)C)cccc2C(C)C)c(OC)c1	< 4.60	-5	–
COc1cccc(OC)c1OC(=O)NS(=O)(=O)Oc1c(C(C)C)cccc1C(C)C	–	–	-12% and -4%
CC(C)c1cccc(C(C)C)c1NC(=O)NS(=O)(=O)N(C)C	5.41	–	–
COc1cc(C(C)(C)C)c(OC(=O)[N-]S(=O)(=O)Oc2c(C(C)C)cccc2C(C)C)c(C(C)(C)C)c1.[Na+]	5.00	-60	–
CC(C)c1cccc(C(C)C)c1OS(=O)(=O)NC(=O)O[C@@H]1C[C@H](C)CCC1C(C)C (some centres not stated)	4.68	-40	–
CC(C)c1cc(Br)cc(C(C)C)c1OC(=O)NS(=O)(=O)Oc1c(C(C)C)cccc1C(C)C	4.51	-29	–
CC(C)c1cccc(C(C)C)c1OC(=O)NS(=O)(=O)Oc1ccccc1	< 4.30	-26	–
CC(C)c1ccc(OC(=O)NS(=O)(=O)Oc2c(C(C)C)cccc2C(C)C)c(C(C)C)c1	< 4.30	6	–
CCCCN(CCCC)S(=O)(=O)NC(=O)Oc1c(C(C)(C)C)cc(C)cc1C(C)(C)C	5.49	–	–
CC(C)c1cccc(C(C)C)c1NC(=O)NS(=O)(=O)N1CCC(c2ccccc2)CC1	4.98	–	-17%
CCN(CC)S(=O)(=O)NC(=O)Nc1c(C(C)C)cccc1C(C)C	5.60	–	–
CC(C)c1cccc(C(C)C)c1NS(=O)(=O)NC(=O)N(Cc1ccccc1)Cc1ccccc1	4.80	–	–
Cc1cc(C(C)(C)C)c(OC(=O)NS(=O)(=O)N(C)CCc2ccccn2)c(C(C)(C)C)c1 [listing 1 of 2 here]	4.51	–	–
CCCCCCCCCCCCOC(=O)NS(=O)(=O)Nc1c(OC)cc(OC)cc1OC	4.52	–	–

SMILES	pIC50 [1]	Delta TC (Rattus norvegicus) [%]	Delta TC [2]
CC(C)c1cccc(C(C)C)c1OC(=O)NS(=O)(=O)N1CCOCC1	< 4.00	–	–
CCCCCCCCCCCCCCCCCCN(C)S(=O)(=O)NC(=O)Nc1c(C(C)C)cccc1C(C)C	5.72	–	-18%
CCCCN(CCCC)S(=O)(=O)NC(=O)Oc1c(C(C)C)cccc1C(C)C [listing 2 of 2 here]	5.72	–	–
CCCCN(CC)S(=O)(=O)NC(=O)Nc1c(C(C)C)cccc1C(C)C	5.92	–	-29%
COc1cc(C(C)(C)C)c(OC(=O)NS(=O)(=O)NCC(c2ccccc2)c2ccccc2)c(C(C)(C)C)c1	4.09	–	-15%
CCCCN(CCCC)S(=O)(=O)N(C)C(=O)Nc1c(C(C)C)cccc1C(C)C	< 5.30	–	–
CC(C)c1cccc(C(C)C)c1NC(=O)NS(=O)(=O)N1CCCC1	4.82	–	–
Cc1cc(C(C)(C)C)c(OC(=O)NS(=O)(=O)N(CC2CCCO2)CC2CCCO2)c(C(C)(C)C)c1 (configuration not stated)	4.68	–	–
CCCCCCCCCCN(CCCCCCCCCC)S(=O)(=O)NC(=O)Oc1c(C(C)(C)C)cc(C)cc1C(C)(C)C	4.05	–	–
CCCCCCN(CCCCCC)S(=O)(=O)NC(=O)Oc1c(C(C)(C)C)cc(C)cc1C(C)(C)C	5.37	–	–
CC(C)c1cccc(C(C)C)c1OC(=O)NS(=O)(=O)N1CCCC1	4.28	–	-4%
CCCCN(CCCC)S(=O)(=O)NC(=O)Nc1c(C(C)C)cccc1C(C)C [listing 1 of 2 here]	6.44	–	–
CCCCCCOS(=O)(=O)NC(=O)Nc1c(C(C)C)cccc1C(C)C	4.57	–	-8%
CC(C)c1cccc(C(C)C)c1OC(=O)NS(=O)(=O)N1CCN(C)CC1	< 4.00	–	–
CCCCCCCCN(CCCCCCCC)S(=O)(=O)NC(=O)Oc1c(C(C)(C)C)cc(C)cc1C(C)(C)C	5.57	–	–
CC(C)c1cccc(C(C)C)c1NC(=O)NS(=O)(=O)N(CCCN(C)C)CCCN(C)C	4.26	–	–
CCCCN(CCCC)S(=O)(=O)NC(=O)Nc1c(C(C)C)cccc1C(C)C [listing 2 of 2 here]	6.28	–	–
C=CCN(CC)S(=O)(=O)NC(=O)Nc1c(C(C)C)cccc1C(C)C	5.68	–	–
CCCCCCCCCCC(C)OS(=O)(=O)NC(=O)Nc1c(C(C)C)cccc1C(C)C (configuration not stated)	–	–	-48%
Cc1cc(C(C)(C)C)c(OC(=O)NS(=O)(=O)N(C(C)C)C(C)C)c(C(C)(C)C)c1	5.49	–	–
CC(C)c1cccc(C(C)C)c1OC(=O)NS(=O)(=O)N1CCCCC1	< 4.00	–	–
Cc1cc(C(C)(C)C)c(OC(=O)NS(=O)(=O)N(C)CCc2ccccn2)c(C(C)(C)C)c1 [listing 2 of 2 here]	4.51	–	–
CCCCCCNS(=O)(=O)NC(=O)Oc1c(C(C)C)cccc1C(C)C	4.68	–	-12%
CCCCCCCCCCCCOS(=O)(=O)NC(=O)Nc1c(C(C)C)cccc1C(C)C	5.17	–	–
CCCCCCCCCCN(CCCCCCCCCC)S(=O)(=O)NC(=O)Nc1c(C(C)C)cccc1C(C)C	6.14	–	-17%
